Broadly, the TGI is the concentration giving total growth inhibition. Usually GI50 stands for the concentration that inhibits growth by half.

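Assay format: 96-well plates, 48-hour exposure. GI50: concentration for 50% inhibition of growth. At the TGI there is no net growth.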

Among the test systems are SNB-78 CNS; LXFL 529 NSCLC; KM20L2 colon; HOP-18 NSCLC; PC-3 prostate; MDA-N; BT-549 breast; MDA-MB-231 breast; RXF-631 renal.
Assay in all cases: DTP human tumour cell line panel, 48 h

Turning to `C[C@@H]1OC(=O)N2CCCC(=C3SCCCS3)C12` (stereo partly specified), the TGI in the test with SNB-78 CNS, in the test on LXFL 529 NSCLC, with KM20L2 colon and in the test on HOP-18 NSCLC was over 100 µM throughout.

As for `CC1CN1C(=O)NCCCCCCNC(=O)N1CC1C` (stereo unspecified), the TGI in the test on PC-3 prostate, in the test with LXFL 529 NSCLC, in the test with KM20L2 colon, in the test with MDA-N, in the test on BT-549 breast and in the test on HOP-18 NSCLC was over 100 µM in each case. Further, the TGI with MDA-MB-231 breast was over 100 µM.

`COc1ccc(C(=O)C#Cc2cnc(OC)nc2OC)cc1`: the values for the GI50 with PC-3 prostate and in the test with BT-549 breast were 27800 µM and 25400 µM, respectively. Also, the TGI in the test with PC-3 prostate turned out to be 2.58 µM; with MDA-N, 3.89 µM; with MDA-MB-231 breast, 86700 µM.

Take `CCOC(=O)/C(=C\c1ccccc1)C(=O)O`: the TGI in the test with SNB-78 CNS and in the test on KM20L2 colon was over 100 µM throughout.

Take `O=C(O)COCC(=O)N(CCOCCN(Cc1ccccc1)C(=O)COCC(=O)O)Cc1ccccc1`: the TGI in the test with PC-3 prostate, in the test with MDA-N, in the test on BT-549 breast and with MDA-MB-231 breast was over 100 µM in each case.

Take `CCOC(=O)/C(C#N)=C/c1[nH]c(C(=O)OCc2ccccc2)c(C)c1C`: the TGI in the test with LXFL 529 NSCLC, with RXF-631 renal, in the test with KM20L2 colon and with HOP-18 NSCLC was over 100 µM in each case.

For `O=C(CCc1cc(-c2ccccc2)nc(=S)[nH]1)N(Cc1ccccc1)Cc1ccccc1`, the TGI in the test with SNB-78 CNS, with LXFL 529 NSCLC, with KM20L2 colon and with HOP-18 NSCLC was over 100 µM throughout.

In the case of `COc1cc(Nc2nc3ccccc3nc2-c2cccs2)cc(OC)c1OC`, the TGI in the test on SNB-78 CNS, with LXFL 529 NSCLC, with KM20L2 colon and with HOP-18 NSCLC was over 100 µM in each case.

With `CC1OC(OC2C(OC(=O)[C@]34CCC(C)(C)CC3C3=CCC5[C@@]6(C)C[C@H](O)[C@H](OC7OC(CO)C(O)C(O)C7N)[C@@](C)(C(=O)O)C6CC[C@@]5(C)C3(C)CC4)OCC(O)C2O)C(O)C(O)C1OC1OCC(O)C(O)C1O` (stereo partly specified), the TGI with SNB-78 CNS, in the test with KM20L2 colon and in the test on HOP-18 NSCLC was over 100 µM throughout.

Take `O=C(O)C(CS)Nc1c2ccccc2nc2ccccc12` (stereo unspecified): the concentration for total growth inhibition (TGI) in the test with LXFL 529 NSCLC and in the test with KM20L2 colon was over 100 µM in each case.

Consider `COc1cc(C(=O)CBr)c(OC)cc1C`, for which the TGI with PC-3 prostate, with MDA-N, in the test on BT-549 breast and with MDA-MB-231 breast was over 100 µM each time.

As for `NC12CC3CC(C1)CC(C(=O)O)(C3)C2`, the TGI in the test with SNB-78 CNS, with LXFL 529 NSCLC, in the test with KM20L2 colon and in the test on HOP-18 NSCLC was over 100 µM each time.

Turning to `O=C1NC(=O)C(CCC(=O)c2ccc3ccccc3c2)C(=O)N1`, the total growth inhibition concentration (TGI) with SNB-78 CNS, in the test on LXFL 529 NSCLC, with RXF-631 renal, in the test on KM20L2 colon and with HOP-18 NSCLC was over 100 µM each time.

Turning to `CC(C)(CO)N1CCN(C(=S)Nc2ccccc2)CC1`, the TGI in the test with PC-3 prostate, in the test on MDA-N, in the test on BT-549 breast and in the test on MDA-MB-231 breast was over 100 µM throughout.

As for `O=[N+]([O-])c1ccc(C=NC2CCCCC2)cc1`, the TGI with SNB-78 CNS, in the test on RXF-631 renal, in the test on KM20L2 colon and with HOP-18 NSCLC was over 100 µM in each case.

On to `COC1(OC)CC2OC1C1N=NN(C(=O)OC(C)(C)C)C21` (stereo unspecified), for which the TGI in the test with SNB-78 CNS, in the test with LXFL 529 NSCLC, in the test on RXF-631 renal, with KM20L2 colon and in the test on HOP-18 NSCLC was over 100 µM throughout.

As to `COc1ccc(NC(=O)CC(=O)N/N=C/c2ccc(N(CCC#N)S(C)(=O)=O)cc2)cc1`, the concentration for total growth inhibition (TGI) in the test on SNB-78 CNS, with LXFL 529 NSCLC, in the test with RXF-631 renal, in the test with KM20L2 colon and in the test on HOP-18 NSCLC was over 100 µM throughout.

For `CCOC(=S)SSSC(=S)OCC`, the TGI with PC-3 prostate, in the test on MDA-N and in the test on MDA-MB-231 breast was over 100 µM in each case.

Regarding `Cc1cc(Cl)cc2c1NC(=O)C2(O)CC(=O)c1ccco1` (stereo unspecified), the total growth inhibition concentration (TGI) was over 100 µM in the test on SNB-78 CNS; over 100 µM in the test on PC-3 prostate; over 100 µM in the test with LXFL 529 NSCLC; over 100 µM in the test on RXF-631 renal; 22.9 µM in the test on MDA-N; over 100 µM in the test with BT-549 breast. The TGI in the test with HOP-18 NSCLC and in the test on MDA-MB-231 breast was over 100 µM each time.

`NC1=NC(c2ccccc2)CC(c2cc(Cl)ccc2O)=N1` (stereo unspecified): the TGI came out at 42.1 µM in the test on SNB-78 CNS, 28.3 µM in the test on LXFL 529 NSCLC, 31.8 µM with KM20L2 colon and 35.6 µM in the test with HOP-18 NSCLC.

On to `O=C(NC12CC3CC(CC(F)(C3)C1)C2)c1ccccc1`, for which the TGI in the test with SNB-78 CNS, in the test with LXFL 529 NSCLC and in the test with KM20L2 colon was over 100 µM in each case.

`C/C(O)=C(\N=O)C(=O)Nc1ccc(Cl)cc1Cl`: the TGI in the test with SNB-78 CNS, in the test with LXFL 529 NSCLC, in the test on KM20L2 colon and in the test on HOP-18 NSCLC was over 100 µM in each case.

Take `O=C(O)c1nn(-c2ccccc2-c2n[nH]c(=O)[nH]c2=O)c(=O)[nH]c1=O`: the TGI in the test on PC-3 prostate, in the test with MDA-N, in the test with BT-549 breast and with MDA-MB-231 breast was over 100 µM throughout.

Turning to `CN(C)CCNC(=O)c1cccc2ccc(-c3ccncc3)nc12`, the TGI in the test with SNB-78 CNS is over 100 µM; with HOP-18 NSCLC it was 9.18 µM.

As for `O=C1c2cccc([N+](=O)[O-])c2C(=O)N1c1ncn[nH]1`, the TGI with PC-3 prostate is over 100 µM; with MDA-N, over 100 µM; in the test with BT-549 breast it was 90 µM; with MDA-MB-231 breast, over 100 µM.

Take `COc1ccc2c(c1)C(=O)Cc1ccccc1CC2`: the TGI with SNB-78 CNS, in the test on LXFL 529 NSCLC, in the test with KM20L2 colon and in the test with HOP-18 NSCLC was over 100 µM each time.

(Values after PubChem BioAssay (NCI).)
